Reference: patent publication US20040014671A1, “Preventives or remedies for heart failure” (priority 2000, published 2004)
Where a SMILES comes first, the peptide text is derived from it. [ ]: non-standard residue; d: D form. dTrp(2-Me) = Cc1[nH]c2ccccc2c1C[C@@H](N)C(=O)O; d2Nal = N[C@H](Cc1ccc2ccccc2c1)C(=O)O

Experiments:
[1] = test system: anesthetized open-chest rabbits; experiment: Cardiac function of anesthetized open-chest rabbit after intravenous administration; assay type: in vivo
Experimental: The effects of pralmorelin on cardiac function were evaluated by measuring various parameters [blood pressure, heart rate, systolic left ventricular pressure (LVPsys), and maximal positive dP/dt (+dP/dtmax) obtained by differentiating the waveform of left ventricular pressure (LVP)]. The value of the maximal positive dP/dt for the left ventricular pressure (+dP/dtmax) is particularly important to determine if the cardiotonic action is sufficient to treat acute heart failure.
Pralmorelin dihydrochloride (hereunder referred to as KP-102) (prepared by the method described in WO 9304081) was dissolved in distilled water for injection to prepare a 1.5 mg/mL solution.
Male NZW-strain rabbits (Kitayama Labes) weighing about 2 kg were used in the experiment. After arrival, the animals were allowed to eat a solid meal (Labo R Stock, Oriental Yeast Co., Ltd.) and drink water in a room at a temperature of 20±2° C. and at a humidity of 55±15% under 12-hr light/ dark cycles (from 7:00 to 19:00); the animals were kept under these conditions for at least 6 days before use.
Rabbits were anesthetized by administering 30 mg/kg of sodium pentobarbital into the auricular vein at a slow speed with attention to their breathing. The animals were then fixed in supine position and an endotracheal cannula was inserted. Under artificial respiration (tidal volume, 25 mL/breath; ventilation frequency, 45 breaths/min: SN-480-7 of Shinano Seisakusyo), the chest of each animal was opened by midline incision and the pericardium was incised to expose the heart. The left ventricular pressure (LVP) was measured with a pressure transducer (TP-300T, Nihon Kohden) and a pressure amplifier (AG-610G, Nihon Kohden) as a cannula with syringe was inserted from the cardiac apex into the left ventricle. The waveform of LVP was differentiated with a differentiator unit (ED-601, Nihon Kohden) to determine the maximal positive dP/dt(+dP/dtmax), which was used as an index for cardiac contractility. Blood pressure was measured with a pressure amplifier (AP-610G, Nihon Kohden) via a pressure transducer (TP-300T, Nihon Kohden) connected to a cannula inserted into the left femoral artery. Heart rate was measured with a cardiotachometer (AT-601G, Nihon Kohden) that was driven by counting the pulse waves of LVP. The parameters mentioned above were recorded on a recorder (TA-11, Gould). A cannula was inserted into the left femoral vein so as to assist in the administration of the test substance. The rectum temperature of each animal was controlled at 39° C. with a body temperature controller (TK-43, Asahi Denshi). The anesthetic was added as required but additional anesthetization should be avoided during the measurements.
After each parameter stabilized, distilled water (0.2 mL/kg) was administered over one minute with an infusion pump (FP-W-100, Toyo Sangyo K.K.) and observations were made for 5 minutes after the administration to see whether the vehicle would have no effect. About 5 minutes after the administration of distilled water, the test substance was administered with an infusion pump in a volume of 0.2 mL/kg over one minute according to the grouping method specified above. Each hemodynamic parameter was measured both before administration and 1, 3, 5, 10, 15, 20 and 25 minutes after administration and the percent changes from the basal values were calculated. In some animals, measurement was conducted until 40 minutes after the administration of the test substance.
The results were each expressed by mean ± standard deviation. Any difference between groups was tested by repeated measures ANOVA (analysis of variance); The significance level was set at 5%.

[2] = test system: papillary muscle of guinea-pig; experiment: Myocardial contractility (developed tension) in isolated papillary muscle of guinea-pig; conditions: for tension development (positive inotropic action) vs baseline: applied cumulatively 10, 30 and 100 μM, n=5, FIG. 1; for change in developed tension: isolated papillary muscle, 1 Hz stimulation
Experimental: The direct effect of pralmorelin on myocardial contractility was evaluated using the isolated cardiac muscle of guinea-pigs according to the standard method for evaluating myocardial contractility.
Male Hartley guinea-pigs (body weight, 301-350 g; Japan SLC) were purchased. The animals were accommodated to an environment at a temperature of 23±2° C. and a humidity of 55±15% under 12-hr light/dark cycles while they were allowed to eat and drink water ad libitum until they weighed 360-480 g. Each test substance was tested on a group of five animals.
The test substances were pralmorelin dihydrochloride (KP-102), representatives of growth hormone secretagogues such as hexarelin, ghrelin and ibutamorelin methanesulfonate (the last being hereunder referred to as MK-0677) (which were prepared by the method described in JP 6-263737 A (kokai)), as well as a recombinant human growth hormone (Sumitomo Pharmaceutical) and amrinone (Sigma) which is a known therapeutic of acute heart failure. KP-102, hexarelin and MK-0677 were dissolved in distilled water. Ghrelin was dissolved in physiological saline. Amrinone was first dissolved in dimethyl sulfoxide and then diluted with physiological saline. The growth hormone was dissolved in a dedicated solubilizer (0.3 w/v % metacresol and 3.9 w/v % D-mannitol). None of the test substance solutions should be added in an amount exceeding 1 w/v %. All reagents other than the test substances were guaranteed products of Nacalai Tesque.
The guinea-pigs were stunned with a blow to the back of their head; thereafter, the carotid artery was incised and the animals were exsanguinated to death. The chest was opened, the blood vessels in the upper part of the heart were cut and the heart was removed. The heart was immediately transferred into a Krebs-Henseleit (K-H) nutrient solution (NaCl, 118.0 mM; KCl, 4.7 mM; CaCl2. 2H2O, 1.0 mM; KH2PO4, 1.2 mM; MgSO4.7H2O, 1.2 mM; NaHCO3, 25.0 mM; glucose, 11.0 mM) that had been fully aerated with 95% O2-5% CO2. The heart was fixed on a rubber-lined Petri dish with needles such that its front face was seen. The ventricular wall of the upper right ventricle (toward the atrium) was excised transversely along the atrium, then excised longitudinally along the interventricular septum so that the ventricular wall was opened to expose the right ventricular papillary muscle. Subsequently, the entire surface of the left ventricle was cut open from the aorta (down) to the apex and the anterior wall of the left ventricle was opened wide, to both right and left, and fixed to expose the papillary muscle of the left ventricle. The tricupsid or mitral valve was cut off from the ventricle and the papillary muscle was cut off at the base to prepare a specimen of papillary muscle. The base of the specimen was fixed to field stimulating electrodes in an organ bath filled with 15 mL of the nutrient solution. The tendinous cord adhering to the valve was tied up with a thread and connected to an FD pickup (TB-612T, Nihon Kohden). A resting tension of 0.5 g was loaded and the papillary muscle was driven with an electric stimulator (SEN-3201, Nihon Kohden) at a frequency of 1 Hz by pulses of 20-ms duration and at a voltage intensity about 1.2 times the threshold. After an equilibration period of about 1 hr, KP-102, hexarelin and amrinone were each applied cumulatively up to amounts of 10, 30 and 100 μM. After examination of the changes in inotropic action due to the application of the test substances, 12.5 mM of CaCl2 was added and the maximum tension that was developed by each specimen was obtained. The developed tension was recorded with a multi-purpose preamplifier (RMP-6008, Nihon Kohden) and a recorder (WT-647G, Nihon Kohden).
Each result was expressed by mean ± standard error. […]

[3] = test system: dogs with occluded anterior descending coronary artery; experiment: Cardiac function of dog with anterior descending coronary artery occlusion after intravenous administration; assay type: in vivo; conditions: 100 μg/kg intravenously after occlusion
Experimental: Using a dog model of acute contractile dysfunction caused by occlusion of the anterior descending coronary artery, the inventors studied the cardiotonic action of pralmorelin.
The action of pralmorelin on the cardiac dysfunction deteriorated by occlusion of the coronary artery was evaluated by various hemodynamic parameters, cardiac output (CO), stroke volume (SV), maximal positive dP/dt of left ventricular pressure (+dP/dtmax), ejection fraction (EF), mean blood pressure (MBP), heart rate (HR), total peripheral resistance (TPR) and double product (RPP) as an index of myocardial oxygen consumption.
Pralmorelin dihydrochloride (hereunder referred to as KP-102) (prepared by the method described in WO 9304081) was dissolved in distilled water to prepare a 0.5 mg/mL solution.
In the experiment, adult beagles of either sex (weighing 9-11 kg) purchased from Nihon Nosan Kogyo K.K. (Kanagawa, Japan) were used. After arrival, the animals were allowed to eat a solid meal (CD-5, CLEA Japan, Inc. or Labo D Stock, Nark Corp.) and drink water in a room at a temperature of 20±2° C. and at a humidity of 55±15% under illumination for 12 hours a day (from 7:00 to 19:00); the animals were kept under these conditions for at least one week before use.
Anesthesia was introduced by intravenous administration of pentobarbital (30 mg/kg) and in order to maintain anesthesia, pentobarbital (5-6 mg/kg/hr) was injected continuously by means of an infusion pump (FP-W-100, Toyo Sangyo) through a polyethylene cannula retained in the right cephalic vein. The endotracheal cannula was inserted and the chest was opened at the left fourth intercostal space under artificial respiration in a tidal volume of 20 mL/kg at a rate of 18 breaths/min with an artificial respirator (SN-480-3 of Shinano Seisakusho). The left anterior descending coronary artery was carefully detached from the site of origin over a length of 1-2 cm and an occluding thread was passed through.
The chest was opened at the left fifth intercostal space and a 5-segment conductance catheter (CCS-108-DA, Unique Medical) was inserted from the cardiac apex so that all electrodes would be placed in the left ventricle. A catheter equipped with a 5 Fr microtip pressure transducer (pressure transducer catheter, Model MPC-500, MILLAR) was inserted into the left ventricle through the left carotid artery. The conductance catheter and the pressure transducer catheter inserted into the left ventricle were connected to a built-in amplifier in a ventricular volume-measuring instrument (Integral 3; VPR-1002, Unique Medical) and the changes in the left ventricular pressure (LVP) and the volume of the left ventricle were measured simultaneously. To determine the mean blood pressure (MBP), blood pressure was measured via a blood pressure amplifier (AP641G, Nihon Kohden) from the 5 Fr pressure transducer catheter inserted into the left femoral artery. Heart rate (HR) was measured with a cardiotachometer (AT-601G, Nihon Kohden) from the pulse waves of blood pressure.
The chest was opened again at the fourth intercostal space and in order to measure the cardiac output (CO(EMF)) (CO as determined by an electromagnetic blood flowmeter based method), a probe connected to an electromagnetic blood flowmeter (MFV-2100, Nihon Kohden) was fitted at the site of origin of the aorta. A spiral electrode was put in the ischemic region that occurred due to the occlusion of coronary artery and a surface electrocardiogram was recorded. A Doppler probe was fitted on the left anterior descending coronary artery and the blood flow was determined with a Doppler blood flowmeter (PD-20, Crystal Biotech). The anterior descending coronary artery was occluded with pulling up the occluding thread over a period of about 5 minutes. Complete occlusion of the blood vessel was confirmed by the change in the surface electrocardiogram and the disappearance of the Doppler sound. […]

[4] = 300 μg/kg intravenously over one minute, n=4

Molecule: C[C@H](NC(=O)[C@@H](Cc1ccc2ccccc2c1)NC(=O)[C@@H](C)N)C(=O)N[C@@H](Cc1c[nH]c2ccccc12)C(=O)N[C@H](Cc1ccccc1)C(=O)N[C@@H](CCCCN)C(N)=O [KP-102, D-alanyl-3-(naphthalen-2-yl)-D-alanyl-L-alanyl-L-tryptophyl-D-phenylalanyl-L-lysinamide] (H-[dA][d2Nal]AW[dF]K-NH2)
- onset of cardiotonic action (LVPsys, +dP/dtmax) after administration ([1]; 300 μg/kg intravenously): beginning one minute after the administration
- overall effect on heart rate ([1]; 300 μg/kg intravenously): little affected
- time of peak of cardiotonic action after administration ([1]; 300 μg/kg intravenously): 5 to 10 min
- time until blood pressure baseline value practically restored ([1]; 300 μg/kg intravenously): ~25 min
- maximum increase in +dP/dtmax, of the baseline value [1, 4]: 22%
- maximum increase in LVPsys, of the baseline value [1, 4]: 13%
- heart rate drop from baseline ([1]; 300 μg/kg intravenously, 3 minutes after administration): 2%
- heart rate increase from baseline ([1]; 300 μg/kg intravenously, 15 minutes after administration): 1%
- heart rate increase from baseline ([1]; 300 μg/kg intravenously, 25 minutes after administration): 2%
- time until baseline values (LVPsys, +dP/dtmax) restored ([1]; 300 μg/kg intravenously, one case with extended monitoring): ≤ 40 min
- mean blood pressure change vs control group ([1]; 300 μg/kg intravenously, p<0.05): significant rise of blood pressure
- tension development (positive inotropic action) vs baseline [2]: significant effect over the baseline value
- change in LVEDP [3]: Neither of the control and KP-102 groups showed changes
- change in LVPsys [3]: Neither of the control and KP-102 groups showed changes
- change in double product (RPP), index of myocardial oxygen consumption [3]: Neither group experienced a change in RPP
- change in heart rate (HR) [3]: Neither of MBP and HR changed
- change in mean blood pressure (MBP) [3]: Neither of MBP and HR changed
- change in −dP/dtmax vs control group [3]: no significant change
- increase in stroke volume (SV) from baseline before administration ([3]; 5 minutes after administration): 5%
- maximal increase in ejection fraction (EF) ([3]; 10 minutes): 10%
- increase in +dP/dtmax from baseline before administration ([3]; 10 minutes after administration): 7%
- maximum increase in cardiac output (CO) from baseline before administration ([3]; 10 minutes after administration, n=5): 7%
- change in total peripheral resistance (TPR) ([3]; significant vs control): TPR dropped following the administration

Molecule: CC(C)(N)C(=O)N[C@H](COCc1ccccc1)C(=O)N1CCC2(CC1)CN(S(C)(=O)=O)c1ccccc12 [MK-0677, ibutamorelin methanesulfonate]
- change in developed tension ([2]; 100 μM): no changes in the developed tension

Molecule: Nc1cc(-c2ccncc2)c[nH]c1=O [amrinone]
- tension development (positive inotropic action) vs baseline [2]: increased in a concentration-dependent manner

Molecule: Cc1[nH]c2ccccc2c1C[C@@H](NC(=O)[C@@H](N)Cc1cnc[nH]1)C(=O)N[C@@H](C)C(=O)N[C@@H](Cc1c[nH]c2ccccc12)C(=O)N[C@H](Cc1ccccc1)C(=O)N[C@@H](CCCCN)C(N)=O [hexarelin] (H-H[dTrp(2-Me)]AW[dF]K-NH2)
- tension development (positive inotropic action) vs baseline [2]: very weak and by no means significant over the baseline value

Molecule: ghrelin
- change in developed tension ([2]; 1 μM): no changes in the developed tension

Molecule: recombinant human growth hormone: recombinant human growth hormone (Sumitomo Pharmaceutical)
- change in developed tension ([2]; 0.2 IU/mL): no changes in the developed tension
